Like-named read-outs stand apart in the source and are kept apart here.
Experiments:
[1] = tested on: people with generalized anxiety disorder (GAD); assay: Randomized double-blind placebo-controlled GAD study, visual analog scale (VAS); assay type: in vivo, human; details: after 8 weeks
Procedure: Example 12. Efficacy and safety study of the oral drug of this invention made as a pharmaceutical composition of this invention in capsules. […] During the study, 3 scheduled visits were conducted in Week 2, Week 4, and Week 8 to assess the effectiveness and safety of the therapy as well as drug inventory and administration. During all of those visits, the patient's diary was checked, a drug inventory was made and the patients' compliance was assessed. In addition, adverse events, concomitant therapy, and vital signs were evaluated, urine drug screen was performed, and assessments using Hamilton Anxiety Rating Scale (HARS), Hamilton Depression Scale (HAMD), Clinical Global Impression-Severity (CGI-S), Clinical Global Impression-Improvement (CGI-I), and Visual Analog Scale (VAS) were made; women of child-bearing potential will take a urine pregnancy test. Also, during visits at Week 4 and Week 8 a physical examination was performed, body weight was measured, an ECG was performed in 12 leads and blood and urine samples were obtained for laboratory tests, namely: urinalysis and biochemical blood analysis, PK analysis before and 1 hour after taking the study drug (SD), and urinalysis. At Week 4, a blood sample was also obtained for genotyping by CYP2D6. […] During this time, a possible development of SD withdrawal syndrome against the background of placebo was evaluated. […]

[2] = Pharmacokinetics, single oral administration of capsules in healthy volunteers (Example 10); assay type: in vivo, human; details: for AUC(0-inf) / Tmax / Cmax: capsules; for AUC(0-inf) / Tmax: 8 volunteers; for Cmax: average of 8 volunteers
Source text: Clinical study of the safety of the oral drug of this invention.

[3] = target: T1, Adrenergic α2C (Homo sapiens, UniProt P18825); assay: Receptor activities, Ki (Table 1); assay type: binding
T1 sequence (P18825 1-462): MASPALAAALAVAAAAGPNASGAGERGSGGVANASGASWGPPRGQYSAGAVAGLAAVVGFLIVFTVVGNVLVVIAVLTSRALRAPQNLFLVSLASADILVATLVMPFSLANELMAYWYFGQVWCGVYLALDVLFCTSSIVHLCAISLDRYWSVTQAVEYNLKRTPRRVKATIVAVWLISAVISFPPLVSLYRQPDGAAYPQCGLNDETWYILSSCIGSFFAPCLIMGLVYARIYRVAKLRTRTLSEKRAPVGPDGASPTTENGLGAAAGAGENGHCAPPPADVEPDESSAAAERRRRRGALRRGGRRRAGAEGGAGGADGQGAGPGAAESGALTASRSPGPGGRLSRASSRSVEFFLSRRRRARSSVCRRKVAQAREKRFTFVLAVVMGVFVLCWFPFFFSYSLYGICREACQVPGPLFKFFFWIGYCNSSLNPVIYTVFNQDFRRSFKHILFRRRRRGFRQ

[4] = target: T2, Adrenergic α2A (Homo sapiens, UniProt P08913); assay: Receptor activities, Ki (Table 1); assay type: binding
T2 sequence (P08913 1-465): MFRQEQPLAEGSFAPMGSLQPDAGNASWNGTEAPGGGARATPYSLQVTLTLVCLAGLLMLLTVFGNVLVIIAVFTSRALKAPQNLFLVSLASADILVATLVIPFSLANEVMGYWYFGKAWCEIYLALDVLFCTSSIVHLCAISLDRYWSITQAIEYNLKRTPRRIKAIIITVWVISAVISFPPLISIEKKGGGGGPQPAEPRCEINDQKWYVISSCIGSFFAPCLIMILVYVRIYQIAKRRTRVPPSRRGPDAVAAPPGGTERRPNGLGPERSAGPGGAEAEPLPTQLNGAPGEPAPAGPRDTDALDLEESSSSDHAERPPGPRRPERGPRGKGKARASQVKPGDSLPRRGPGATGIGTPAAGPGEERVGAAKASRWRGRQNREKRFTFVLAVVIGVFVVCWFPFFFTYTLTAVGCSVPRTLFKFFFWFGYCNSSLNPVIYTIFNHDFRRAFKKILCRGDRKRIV

[5] = target: T3, Adrenergic α1A (Homo sapiens, UniProt P35348); assay: Receptor activities, Ki (Table 1); assay type: binding
T3 sequence (P35348 1-466): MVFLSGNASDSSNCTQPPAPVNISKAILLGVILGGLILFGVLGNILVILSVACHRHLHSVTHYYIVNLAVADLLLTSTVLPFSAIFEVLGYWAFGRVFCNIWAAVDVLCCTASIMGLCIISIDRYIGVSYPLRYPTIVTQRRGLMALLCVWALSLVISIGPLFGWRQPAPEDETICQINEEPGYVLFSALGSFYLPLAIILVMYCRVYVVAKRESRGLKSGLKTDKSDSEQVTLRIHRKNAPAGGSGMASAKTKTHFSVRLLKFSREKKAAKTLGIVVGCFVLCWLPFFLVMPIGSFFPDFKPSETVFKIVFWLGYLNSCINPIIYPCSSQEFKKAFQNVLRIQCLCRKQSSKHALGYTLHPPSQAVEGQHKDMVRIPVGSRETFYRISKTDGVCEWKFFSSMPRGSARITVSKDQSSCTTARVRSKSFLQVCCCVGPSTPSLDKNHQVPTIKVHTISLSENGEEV

[6] = male, human, blood, single oral dose 2 mg
[7] = male, human, blood, single oral dose 4 mg
[8] = male, human, blood, single oral dose 10 mg
[9] = male, human, blood, single oral dose 20 mg

With `Cc1ccc2c(c1)c1c(n2CCc2ccccc2)CCN(C)C1.Cl` [A•HCl, 2,8-dimethyl-5-(2-phenylethyl)-2,3,4,5-tetrahydro-1H-pyrido[4,3-b]indole hydrochloride] as the molecule, how does the “VAS average change (standard error)” value ([1]; 40 mg, N = 42, average at Week 0 24.1) read?
Its value is −9.5 (3.24).

And the “VAS average change (standard error)” value ([1]; 60 mg, N = 44, average at Week 0 27.4)?
Its value is −11.1 (3.23).

And the “Dose dependence of Cmax and AUC” value ([2]; dose range from 2 to 20 mg)?
The value was “linear increase in Cmax and AUC”.

And the AUC(0-inf) [2, 6]?
The AUC(0-inf) was 0.0946 ng·h/mL.

What about the Tmax [2, 6] of the same molecule?
The Tmax was 1 h.

What about the Cmax ([2]; male, human, blood, single oral dose 2 mg, read-out: Cmax) of the same molecule?
The Cmax was 0.0021 ng/mL.

What about the AUC(0-inf) [2, 7] of the same molecule?
The AUC(0-inf) was 0.211 ng·h/mL.

What about the Tmax [2, 7] of the same molecule?
Its Tmax is 1 h.

And the AUC(0-inf) [2, 8]?
The AUC(0-inf) was 0.462 ng·h/mL.

What about the Tmax [2, 8] of the same molecule?
The Tmax was 0.625 h.

What about the AUC(0-inf) [2, 9] of the same molecule?
The AUC(0-inf) was 0.834 ng·h/mL.

And the Tmax [2, 9]?
The Tmax was 1 h.

And the half-life ([2]; male, human, blood, single oral doses 2 to 20 mg, read-out: Harmonic mean half-life)?
The half-life was no more than 14 h.

And the Cmax ([2]; single oral dose 4 mg)?
Its Cmax is 0.0229 ng/mL.

And the Cmax ([2]; single oral dose 10 mg)?
The Cmax was 0.0537 ng/mL.

What about the Cmax ([2]; single oral dose 20 mg) of the same molecule?
The Cmax was 0.0841 ng/mL.

What about the “Time at which the maximum concentration in the blood of the base (A) is reached” value ([2]; single oral doses 2 to 20 mg) of the same molecule?
The value was “about an hour”.

What about the Ki [3] of the same molecule?
Its Ki is 3.55 nM.

And the Ki [4]?
Its Ki is 1.77 nM.

And the Ki [5]?
Its Ki is 30.2 nM.

— US12357619B2, “Noradrenergic and specific serotonergic anxiolytic and antidepressant, method for the production and use thereof” (ALLA CHEM, LLC, priority 2020, dated 2025)
